In PMC8062000, “High-throughput screening of the ReFRAME, Pandemic Box, and COVID Box drug repurposing libraries against SARS-CoV-2 nsp15 endoribonuclease to identify small-molecule inhibitors of viral activity” (PLoS ONE, 2021):
“And” between values parts separate entries of the source, which are not always exact repeats. Identical values can stand only once. Like-named read-outs stand apart in the source and are kept apart here.

Experiments:
[1] = biological target: T1, SARS-CoV-2 nsp15 endoribonuclease (endoU) (Severe acute respiratory syndrome coronavirus 2, UniProt P0DTD1); experiment: biochemical; format: biochemical; details: for inhibition at 10 µM: read-out: 1° FRET Assay % inhibition
SARS-CoV-2 nsp15 [2] = biological target: T2, SARS-CoV-2 nsp15 (Severe acute respiratory syndrome coronavirus 2, UniProt P0DTD1); format: binding
[3] = Amplex Red redox-cycling counter screen (H2O2 generation with DTT); details: 1 mM DTT; compared with redox-cycling reference DA-3003-1
[4] = Cell viability in Calu-3 cells (cell number per well); details: human, CC50, Calu-3, 48 h
[5] = Cytotoxicity in Vero 76 cells (CPE assay toxicity wells); details: African green monkey
SARS-CoV-2 [6] = experiment: microbe, parasite or virus in culture; format: cell-based; details: for protection against viral CPE: Vero 76
[7] = biological target: T1, SARS-CoV-2 nsp15 endoribonuclease (endoU); experiment: biochemical; details: 0.78 μM nsp15, 500 ng poly(rA) substrate, 2 h; n = 3; read-out: RNA Cleavage Assay IC50
[8] = system: SARS-CoV-2 (isolate USA WA1/2020); experiment: microbe, parasite or virus in culture; format: cell-based; details: Severe acute respiratory syndrome coronavirus 2; Calu-3, MOI = 0.5, 48 h, immunostaining; read-out: EC50 (infection)
[9] = mice, 100 mg/kg per day for 6 months ref 37; cited from earlier work
SARS-CoV-2 [10] = experiment: microbe, parasite or virus in culture; format: cell-based; details: Severe acute respiratory syndrome coronavirus 2, read-out: EC90 (concentration that reduces viral replication by 90%); Caco-2, microscopic observation
SARS-CoV-2 nsp15 [11] = biological target: T2, SARS-CoV-2 nsp15; experiment: Native MS (CID/SID) ligand binding to nsp15
Description: In native MS, nsp15 was electrosprayed from non-denaturing ammonium acetate solution in the presence of an inhibitor. Inhibitor binding can be evaluated by monitoring the increase in mass of the inhibitor-nsp15 complex compared to the apo (protein with no ligand) nsp15 protein. […] Collision-induced dissociation (CID), widely available in commercial mass spectrometers, involves acceleration of protein ions into a pressurized collision cell. Upon CID, the internal energy of the protein increases from multiple collisions with neutral gas molecules.
By increasing the acceleration voltage to 120V, CID and SID of the nsp15 hexamer both released primarily monomeric species (Fig 6B and 6C), with SID resulting in lower charged monomers and additional dimers/trimers. […] The peak cluster centered at 41.2 kDa is the apo protein (sequence mass and salt adducts).
Recombinant nsp15 was buffer exchanged into 100 mM ammonium acetate (pH adjusted to 7.5 using ammonium hydroxide) using size exclusion spin columns (Zeba Micro Spin Desalting Columns, 7k MWCO, 75 μL) following manufacturer’s protocol. The protein solution was then diluted to 5 μM, supplemented with 10 μM Mn(II) acetate, and mixed with ligands at desired concentrations. […]

[12] = 100 mg/kg oral dose, Sprague-Dawley rats, no reference given, cited from earlier work
[13] = Mammalian cytotoxicity assay, HepG2; details: human, HepG2 hepatocyte cells
[14] = Cytotoxicity in Caco-2 cells; details: human
[15] = Mammalian cytotoxicity assay, CRL-8155; details: human, CRL-8155 lymphocyte cells
[16] = Solubility observation in DMSO and assay buffer; details: diluted in assay buffer
SARS-CoV-2 [17] = system: SARS-CoV-2; set-up: method as in PMID 33564093; details: at 50 μM concentrations ref 15; cited from earlier work
[18] = primary screen at 10 μM, 25 nM nsp15, 0.5 μM substrate, 1 h

SMILES: Cc1cc(N)c2cc(NC(=O)Nc3ccc4nc(C)cc(N)c4c3)ccc2n1 [Aminoquinuride]
- inhibition at 10 µM [1]: 95%

SMILES: O=C1C(NC2CCCCCCC2)=CC(=O)c2ncccc21 [Azaquinone]
- DSF Assay ΔTm (SARS-CoV-2 nsp15 [2]): -11.4 °C
- nsp15 Tm lowered by (SARS-CoV-2 nsp15 [2]): more than 10 °C
- Amplex Red Assay % Activity (redox cycling) [3]: >100%
- inhibition at 10 µM [1, 18]: 80%

SMILES: Cc1nc2c(s1)C(=O)C=C(NCCN(C)C)C2=O [BN-82685]
- DSF Assay ΔTm (SARS-CoV-2 nsp15 [2]): -11.3 °C
- nsp15 Tm lowered by (SARS-CoV-2 nsp15 [2]): more than 10 °C
- Amplex Red Assay % Activity (redox cycling) [3]: >100%
- inhibition at 10 µM [1, 18]: 76%

SMILES: CC1(C)C(=O)N=C2C1=C(O)C(=O)c1ccccc12 [BVT-948]
- DSF Assay ΔTm (SARS-CoV-2 nsp15 [2]): -11.8 °C
- nsp15 Tm lowered by (SARS-CoV-2 nsp15 [2]): more than 10 °C
- 1° FRET Assay % inhibition [1]: 90%
- IC50 ([1]; read-out: 2° FRET Assay IC50): 4.96 µM
- IC50 ([1]; read-out: 3° FRET Assay IC50): 0.1 µM

SMILES: CC(=O)[C@]1(O)Cc2c(O)c3c(c(O)c2[C@@H](O[C@H]2C[C@H](N)[C@H](O)[C@H](C)O2)C1)C(=O)c1c(O)cccc1C3=O [Carubicin]
- inhibition at 10 µM [1]: 56%

SMILES: CC(C)(O/N=C(\C(=O)N[C@@H]1C(=O)N2C(C(=O)[O-])=C(C[n+]3ccccc3)CS[C@H]12)c1csc(N)n1)C(=O)O [Ceftazidime]
- IC50 ([1]; 2° FRET Assay IC50): > 10 µM
- IC50 ([1]; 3° FRET Assay IC50): 72 µM
- inhibition at 10 µM [1, 18]: 66%

SMILES: COc1cccc2c1C(=O)c1c(O)c3c(c(O)c1C2=O)C[C@@](O)(C(=O)CO)C[C@@H]3O[C@H]1C[C@H](N)[C@H](O)[C@H](C)O1 [Doxorubicin]
- IC50 ([1]; 2° FRET Assay IC50): 7.46 µM
- IC50 ([1]; 3° FRET Assay IC50): 9.29 µM

SMILES: O=C(Nc1ccc(O)c(O)c1)c1cccc(O)c1O [Exebryl-1]
- CC50 at 48 h [4]: > 200 µM
- CC50 at 5 days ([5]; CC50, Vero 76, microscopic observation): 52 µM
- CC50 at 5 days ([5]; CC50, Vero 76 cell growth, neutral red staining): 57 µM
- EC50 (SARS-CoV-2 [6]; Severe acute respiratory syndrome coronavirus 2, Vero 76, read-out: EC50 (concentration that reduces CPE by 50%)): 10 µM
- EC50 (SARS-CoV-2 [6]; Severe acute respiratory syndrome coronavirus 2, Vero 76, neutral red staining, read-out: EC50 (CPE)): 16 µM
- antiviral activity (SARS-CoV-2 [6]; summary across Vero 76, Caco-2, and Calu-3 cells): 10 to 66 µM
- IC50 [7]: 9.27 µM
- DSF Assay ΔTm (SARS-CoV-2 nsp15 [2]): 0.1 °C
- EC50 [8]: 65.6 µM
- toxicity [9]: without evident toxicity
- EC90 (SARS-CoV-2 [10]): 51 µM
- Kd (SARS-CoV-2 nsp15 [11]): ~12 µM
- inhibition at 10 µM [1, 18]: 57%
- plasma concentration ([12]; at 1 h): 9 µM
- plasma levels ([12]; by 4 h after dosing): below 4 μM
- CC50 at 48 h [13]: > 200 µM
- CC50 [14]: 61 µM
- CC50 at 48 h [15]: 37.8 µM

SMILES: CCc1ccccc1NC(=O)Oc1ccc2c(c1)[C@]1(C)CCN(C)O[C@@H]1N2C [Ganstigmine]
- inhibition at 10 µM [1]: 51%

SMILES: O=C(Nc1cccc(C2=NCCN2)c1)c1ccc(-c2ccc(C(=O)Nc3cccc(C4=NCCN4)c3)cc2)cc1 [MMV1580853]
- solubility [16]: poor solubility
- protection against viral CPE (SARS-CoV-2 [6]): Neither Piroxantrone nor MMV1580853 exhibited protection against viral CPE
- DSF Assay ΔTm (SARS-CoV-2 nsp15 [2]): 0.1 °C
- Amplex Red Assay % Activity (redox cycling) [3]: < 25%
- binding detected on CID- or SID-released monomers (SARS-CoV-2 nsp15 [11]; ~10 μM compound, 5 μM nsp15): too weak to be detected
- inhibition at 10 µM [1, 18]: 62%
- CC50 at 48 h [13]: > 80 µM
- CC50 at 48 h [15]: > 80 µM

SMILES: C/C1=C2/[N-][C@H]([C@H](CC(N)=O)[C@@]2(C)CCC(=O)NC[C@@H](C)OP(=O)([O-])O[C@H]2[C@@H](O)[C@@H](n3cnc4cc(C)c(C)cc43)O[C@@H]2CO)[C@]2(C)N=C(/C(C)=C3N=C(/C=C4N=C1[C@@H](CCC(N)=O)C\4(C)C)[C@@H](CCC(N)=O)[C@]\3(C)CC(N)=O)[C@@H](CCC(N)=O)[C@]2(C)CC(N)=O.[CH3-].[Co+3] [Mecobalamin]
- DSF Assay ΔTm (SARS-CoV-2 nsp15 [2]): -3.4 °C
- 1° FRET Assay % inhibition [1, 18]: 58%
- IC50 ([1]; secondary dose response, 8-point 3-fold, top concentration 10 μM, read-out: 2° FRET Assay IC50): 3.34 µM
- IC50 ([1]; tertiary dose response, expanded concentration range, read-out: 3° FRET Assay IC50): 18.3 µM

SMILES: C[C@@H]1CNS(=O)(=O)N(c2ccc3c(C#N)nccc3c2)C1 [PF-06260414]
- 1° FRET Assay % inhibition [1]: 74%
- IC50 ([1]; read-out: 2° FRET Assay IC50): 7.69 µM
- IC50 ([1]; read-out: 3° FRET Assay IC50): > 80 µM

SMILES: NCCCNc1ccc2c3c(nn2CCNCCO)-c2c(O)ccc(O)c2C(=O)c13 [Piroxantrone]
- protection against viral CPE (SARS-CoV-2 [6]): Neither Piroxantrone nor MMV1580853 exhibited protection against viral CPE
- DSF Assay ΔTm (SARS-CoV-2 nsp15 [2]): -1.1 °C
- inhibition at 10 µM [1, 18]: 74%
- CC50 at 48 h [13]: 33.9 µM
- CC50 at 48 h [15]: < 1.25 µM

SMILES: COC1=C(N)C(=O)c2nc(-c3nc(C(=O)O)c(C)c(-c4ccc(OC)c(OC)c4O)c3N)ccc2C1=O [Streptonigrin]
- DSF Assay ΔTm (SARS-CoV-2 nsp15 [2]): -11.5 °C
- nsp15 Tm lowered by (SARS-CoV-2 nsp15 [2]): more than 10 °C
- Amplex Red Assay % Activity (redox cycling) [3]: >100%
- 3° FRET Assay IC50 [1]: sub-micromolar
- IC50 ([1]; 2° FRET Assay IC50): 4.25 µM
- IC50 ([1]; 3° FRET Assay IC50): 0.29 µM
- inhibition at 10 µM [1]: 89%

SMILES: O=C1NC(=O)/C(=C\c2ccccc2)C2=C1CCCC2 [Tesimide]
- DSF Assay ΔTm (SARS-CoV-2 nsp15 [2]): -11.7 °C
- nsp15 Tm lowered by (SARS-CoV-2 nsp15 [2]): more than 10 °C
- inhibition at 10 µM [1, 18]: 82%

SMILES: Cc1cc(-c2ccc(/N=N/c3c(S(=O)(=O)O)cc4cc(S(=O)(=O)O)cc(N)c4c3O)c(C)c2)ccc1/N=N/c1c(S(=O)(=O)O)cc2cc(S(=O)(=O)O)cc(N)c2c1O [Trypan Blue]
- IC50 ([1]; 2° FRET Assay IC50): 5.08 µM and 7.78 µM
- 1° FRET Assay % inhibition [1, 18]: 51%
- inhibition at 10 µM [1, 18]: 58%

SMILES: COc1cccc2c1C(=O)c1c(O)c3c(c(O)c1C2=O)C[C@@](O)(C(=O)CO)C[C@@H]3O[C@H]1C[C@H](N)[C@H](O[C@@H]2CCCCO2)[C@H](C)O1 [pirarubicin]
- DSF Assay ΔTm (SARS-CoV-2 nsp15 [2]): 0.4 °C
- IC50 ([1]; 2° FRET Assay IC50): 3.78 µM
- IC50 ([1]; 3° FRET Assay IC50): 5.98 µM
- inhibition at 10 µM [1]: 66%

SMILES: N=C1CCCN1Cc1nc(O)nc(O)c1Cl [tipiracil]
- antiviral activity (SARS-CoV-2 [17]): only minimal antiviral activity

SMILES: CC(=O)O[C@H]1C[C@@H]2CC[C@@H]3[C@H](CC[C@@]4(C)[C@H]3C[C@H]([N+]3(C)CCCCC3)[C@@H]4OC(C)=O)[C@@]2(C)C[C@@H]1N1CCCCC1 [vecuronium bromide]
- inhibition at 10 µM [1]: 61%

SMILES: CC1(C)CCC2=C(O1)c1ccccc1C(=O)C2=O [β-Lapachone]
- DSF Assay ΔTm (SARS-CoV-2 nsp15 [2]): -11.5 °C
- nsp15 Tm lowered by (SARS-CoV-2 nsp15 [2]; negative Tm shift, 100 μM ligand): more than 10 °C
- Amplex Red Assay % Activity (redox cycling) [3]: >100%
- 3° FRET Assay IC50 [1]: sub-micromolar
- IC50 ([1]; 2° FRET Assay IC50): 2.78 µM
- IC50 ([1]; 3° FRET Assay IC50): 0.31 µM
- inhibition at 10 µM [1]: 73%
